Test results reported in patent US6632816B1, “Aromatic derivatives as HIV aspartyl protease inhibitors” (Pharmacor Inc., priority 2002, dated 2003).
Where two headings read alike, the source gives them in different places.

Key:
[1] = tested on: HIV-1 laboratory viral strain NL4.3 (wild type virus); assay: Anti-viral assay in vitro (MTT, infected MT-4 cells); type: cell-based
Protocol: Anti-viral and Cytotoxicity Assays In Vitro
To evaluate the EC50 of our compounds, various drug concentrations are incubated with the infected cell for six days and then the metabolic activity of the cells is monitored by the MTT assay. (See A. J. Japour et al, Antimicrobial Agents and Chemotherapy, 37, 1095-1101, 1993 and R. Pauwels et al. Journal of Virological Methods, 20, 309-321, 1988)
We use the laboratory viral strain NL4.3 as wild type virus and the cell line used is MT-4 which is a T-cell line highly sensitive to HIV-1. We also use some WT clinical strains. To address the resistance issue we assay the inhibitors with NL4.3 mutants which are designed to be resistant to specific commercially,available inhibitors

HIV protease [2] = biological target: T1, HIV protease (Human immunodeficiency virus type 1 group M subtype B, UniProt P04585); details: FRET assay, Henderson equation
Excerpt: (§1) Enzymatic Assay for Determining the Inhibition Constant (Ki) of Synthetic Compounds Targeting the HIV Protease
(§2) This is a fluorometric assay based on the cleavage by protease of a substrate carrying a donor group (EDANS) and an acceptor group (DABCYL) on each side of the cleavage site, interacting together through fluorescence resonance energy transfer (FRET) as described by Matayoshi et al. (Science 247:954-954, 1990).
(§3) After calculation of Vo and Vi, the inhibition constant (Ki) of the compound is determined using the equation of Henderson: [formula]
where Vo=the enzyme's initial velocity
(§4) Vi=the enzyme velocity in the presence of the inhibitory compound,
(§5) [I]=inhibitor concentration, [S]=substrate concentration,
(§6) Km=Michaelis-Menten constant and Kiapp=apparent Ki
(§7) Graphs are traced and the Ki determined using GraphPad Prism software v.

HIV protease [3] = biological target: T1, HIV protease; assay: biochemical
Excerpt: as §1, §2, §3
where Vo=the enzyme's initial velocity
as §4, §5, §6, §7

[4] = Human immunodeficiency virus 1, MT4, 144 h, MT-4 cells infected with NL4.3, six days, MTT assay, read-out: EC50

SMILES: COC(=O)N[C@@H](Cc1ccccc1-c1ccccc1)C(=O)NCCCCC(CO)N(CC(C)C)S(=O)(=O)c1ccc(N)cc1 (stereo partly drawn) [Example 30, (1S,5R,S)-(1-{5-[(4-Amino-benzenesulfonyl)-isobutyl-amino]-6-hydroxy-hexylcarbamoyl}-2-biphenyl-2-yl-ethyl)-carbamic Acid Methyl Ester]
- EC50 ([1]; MT-4 cells infected with NL4.3, six days, MTT assay, read-out: EC50): 344 nM
- Ki (HIV protease [2]): 1.4 nM

SMILES: CC(=O)N[C@@H](Cc1ccc2ccccc2c1)C(=O)NCCCC[C@@H](CO)N(CC(C)C)S(=O)(=O)c1ccc(N)cc1 [Example 48, (2S,5S)-2-Acetylamino-N-{5-[(4-amino-benzenesulfonyl)-isobutyl-amino]-6-hydroxy-hexyl}-3-naphthalen-2-yl-propionamide]
- EC50 [1, 4]: 948 nM
- Ki (HIV protease [3]): 3.6 nM

SMILES: COc1ccc(S(=O)(=O)N(CC(C)C)[C@H](CO)CCCCNC(=O)[C@H](Cc2ccc3ccccc3c2)NC(=O)N2CCOCC2)cc1 [Example 35, (1S,5S)-Morpholine-4-carboxylic Acid (1-{6-Hydroxy-5-[isobutyl-(4-methoxy-benzenesulfonyl)-amino]-hexylcarbamoyl}-2-naphthalen-2-yl-ethyl)-amide]
- EC50 ([1]; Human immunodeficiency virus 1, MT4, 144 h): 275 nM
- Ki (HIV protease [3]): 1.3 nM

SMILES: CC(C)CN([C@H](CO)CCCCNC(=O)[C@H](Cc1cccc2ccccc12)NC(=O)N1CCOCC1)S(=O)(=O)c1ccc(N)c(Cl)c1 [Example 44, (1S,5S)-Morpholine-4-carboxylic Acid (1-{5-[(4-Amino-3-chloro-benzenesulfonyl)-isobutyl-amino]-6-hydroxy-hexylcarbamoyl}-2-naphthalen-1-yl-ethyl)-amide]
- EC50 [1, 4]: 134 nM
- Ki (HIV protease [3]): 0.904 nM

SMILES: COC(=O)N[C@H](C(=O)NCCCC[C@@H](CO)N(CC(C)C)S(=O)(=O)c1ccc(C#N)cc1)C(c1ccccc1)c1ccccc1 [Example 79]
- EC50 [1, 4]: 65 nM
- Ki (HIV protease [3]): < 3.8 nM
